Measurements reported in EP1060748A1, “REMEDIES FOR CORNEAL EPITHELIUM DISTURBANCE” (Wakamoto Pharmaceutical Co., Ltd., priority 1998, dated 1999).
Structures can show the parent of a compound that is named as a salt.

System: human corneal epithelial cell line HCEC
Assay: Protection against UV-C-induced human corneal epithelial cell damage, viable cell count
Format: cell-based
Conditions: Table 8-2, UV-C 5 seconds
Procedure: Human corneal epithelial cell line HCEC was suspended in 10% fetal bovine serum-SHEM modified medium at a concentration of 1×10^5 cells/ml and 500 µl of this cell suspension was seeded into each well of a 24-multiwell plate (Corning). The cells were cultured in a 5% CO2 incubator at 37°C for 16 to 17 hours. Then, the culture supernatant was thoroughly removed and 500 µl of 10% fetal bovine serum-SHEM modified medium containing a test sample was added to each well. The cells were cultured under the same conditions as above for a further two hours. After completion of culture in contact with the sample, the culture supernatant was removed thoroughly so that there would be substantially no residue of the sample in the multiwell plate. The multiwell plate in this condition was irradiated with UV-C, the ultraviolet light with a maximum lethal power, at a distance of 20 to 30 cm for 5 seconds. After UV-C irradiation, 500 µl/well of 10% fetal bovine serum-SHEM modified medium containing the same sample as above was added again and the cells were cultured under the same conditions as above for 16 to 17 hours. Then, the supernatant was discarded from each well and 100 µl of an excision solution (PBS containing 0.25% trypsin (w/v) and 0.02% EDTA) was added. The plate was then incubated in a 5% CO2 incubator at 37 °C for 6 minutes. After this incubation, the viable epithelial cells were thoroughly detached and dispersed by pipetting and stained with 100 µl of 0.1% (w/v) trypan blue staining solution, and immediately the viable cells were counted with a hemocytometer. The protective effect of the sample against UV-induced human corneal epithelial cell damage was evaluated by the following computation. Protective effect (%) = (number of viable cells in sample-added group ÷ number of viable cells in sample-free group) × 100 [formula]

## N[C@@H](CCC(=O)N[C@@H](CS)C(=O)NCC(=O)O)C(=O)O [Glutathione]
2 mM
  Protective effect (%): 95%

## O=C1O[C@H]([C@@H](O)CO)C(O)=C1O [Vitamin C, ascorbic acid]
2 mM
  Protective effect (%): 104%

## N[C@@H](CS)C(=O)O [Cysteine]
2 mM
  Protective effect (%): 46%

## CC(=O)N(O)CCCCCNC(=O)CCC(=O)N(O)CCCCCNC(=O)CCC(=O)N(O)CCCCCN [Deferoxamine mesylate]
2 mM
  Protective effect (%): 94%

## CC(=O)Oc1c(C)c(C)c2c(c1C)CCC(C)(CCCC(C)CCCC(C)CCCC(C)C)O2 (racemic) [Vitamin E, DL-α-tocopherol acetate]
20 µM
  Protective effect (%): 107%
